pIC50: −log10 of the molar value.
Assays:
[1] = target: C-domain of MALT1 (amino acids 329-824) (Homo sapiens (Human), UniProt Q9UDY8); experiment: MALT1 biochemical assay (fluorescence lifetime enzyme activity assay); conditions: 60 min preincubation, 2.5 nM enzyme, 1 μM substrate
Protocol: The readout parameter is the increase of fluorescence lifetime over time, proportional to enzyme activity.
The assay employs a short peptide substrate labeled with the single fluorophore PT14 as a fluorescence lifetime probe sensitive to the cleavage state of the substrate (PT14: 6-(9-oxo-9H-acridin-10-yl)-hexanoate, AssayMetrics, UK). […] The assay buffer consists of 200 mM Tris/HCl at pH 7.5, 0.8 M Na citrate, 100 μM EGTA, 100 μM DTT and 0.05% (w/v) CHAPS. […] Test compounds were dissolved in 100% (v/v) DMSO or a mixture containing 90% (v/v) DMSO and 10% (v/v) H2O at a stock concentration of 100 mM. Serial dilutions of test compounds were prepared using either 100% (v/v) DMSO or a mixture containing 90% (v/v) DMSO and 10% (v/v) H2O.
The exponent, p, is the Hill coefficient.

IL2 promoter = experiment: Human IL2 promoter reporter gene assay (RGA) in Jurkat cells; format: cell-based; conditions: […], heading: IL2 reporter gene assay IC50, anti-CD28 mAb + PMA stimulation 5.5 h
Protocol: Human IL2 Promoter Reporter Gene Assay (RGA) in Jurkat Cells
The transfected Jurkat clone K22 290_H23 was propagated in RPMI 1640 supplemented with 10% heat inactivated fetal calf serum, 50 μM 2-mercaptoethanol and 1 mg/ml Geneticin. The cell concentration should not exceed 1×10e6/ml during culturing. The cells should not exceed passage 30. Prior to the assay the cells were washed and prepared to the concentration of 2×10e6 cells/ml.
Compound dilutions were made as 2×-concentrated solutions then diluted ½ by addition to cells. Two hundred and fifty μl of compound dilution and 250 μl of cells were mixed together in wells of a 96-deep well plate. Cells/compounds premix were incubated 30 min at 37° C. and 5% CO2 directly in the deep well plate.
After pre-incubation of cells with compounds, cells were stimulated with anti-CD28 mAb (clone 15E8) at 3 μg/ml+PMA at 1 μg/ml. Both co-stimulants were diluted in culture medium at a 10×-concentrated solution. 10 μl of co-stimulants were pipetted into the white 96-well plates and 100 μl of cell/compound mix was immediately added in duplicates. The cells were stimulated for 5.5 h at 37° C. and 5% CO2.
After cell stimulation, 50 μl of BriteLitePlus reagent (Perkin Elmer) was added to each well and the bioluminescence was measured with a Wallac EnVision reader (Perkin Elmer).

C-domain of MALT1 (amino acids 329-824), sequence (Q9UDY8 329-824): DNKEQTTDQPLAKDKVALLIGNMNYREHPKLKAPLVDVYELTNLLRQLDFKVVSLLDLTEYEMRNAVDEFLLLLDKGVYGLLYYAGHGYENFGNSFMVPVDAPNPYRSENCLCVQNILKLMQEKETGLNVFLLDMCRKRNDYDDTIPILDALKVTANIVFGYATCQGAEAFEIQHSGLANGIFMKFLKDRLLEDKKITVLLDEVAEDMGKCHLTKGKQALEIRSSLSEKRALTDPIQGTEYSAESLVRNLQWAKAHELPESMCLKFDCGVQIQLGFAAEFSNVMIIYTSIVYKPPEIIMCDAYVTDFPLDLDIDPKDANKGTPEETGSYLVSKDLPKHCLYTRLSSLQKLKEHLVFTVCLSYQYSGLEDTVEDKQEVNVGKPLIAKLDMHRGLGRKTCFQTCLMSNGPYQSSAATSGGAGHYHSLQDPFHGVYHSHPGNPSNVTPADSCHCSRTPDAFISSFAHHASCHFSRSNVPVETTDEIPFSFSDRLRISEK

Compound	pIC50 [1]	pIC50 (IL2 promoter)
CC(C)c1c(NC(=O)Nc2ccc(-c3ccnc(N)n3)c(Cl)c2)cnc2cc(Cl)nn12 [Example 23, 1-(4-(2-aminopyrimidin-4-yl)-3-chlorophenyl)-3-(2-chloro-7-isopropylpyrazolo[1,5-a]pyrimidin-6-yl)urea]	8.40	6.28
Cc1cc(CO)nn1-c1ccc(NC(=O)Nc2cnc3cc(Cl)nn3c2C(C)C)cc1Cl [Example 28, 1-(3-chloro-4-(3-(hydroxymethyl)-5-methyl-1H-pyrazol-1-yl)phenyl)-3-(2-chloro-7-isopropylpyrazolo[1,5-a]pyrimidin-6-yl)urea]	8.05	
C[C@H](O)c1c(NC(=O)Nc2ccnc(C(F)(F)F)c2)cnc2cc(Cl)nn12 [Example 114, (S)-1-(2-chloro-7-(1-hydroxyethyl)pyrazolo[1,5-a]pyrimidin-6-yl)-3-(2-(trifluoromethyl)pyridin-4-yl)urea]	8.15	
C[C@H](O[C@H]1CCOC1)c1c(NC(=O)Nc2cnc(-n3nccn3)c(Cl)c2)cnc2cc(Cl)nn12 [Example 101, 1-(5-chloro-6-(2H-1,2,3-triazol-2-yl)pyridin-3-yl)-3-(2-chloro-7-((S)-1-(((S)-tetrahydrofuran-3-yl)oxy)ethyl)pyrazolo [1,5-a]pyrimidin-6-yl)urea]	8.30	
Cc1ncn(-c2ccc(NC(=O)Nc3cnc4cc(Cl)nn4c3C(C)C)cc2C#N)n1 [Example 19, 1-(2-chloro-7-isopropylpyrazolo[1,5-a]pyrimidin-6-yl)-3-(3-cyano-4-(3-methyl-1H-1,2,4-triazol-1-yl)phenyl)urea]		6.98
CO[C@H](C)c1c(NC(=O)Nc2ccnc(C(F)(F)F)c2)cnc2cc(Cl)nn12 [Example 47, (R)-1-(2-chloro-7-(1-methoxyethyl)pyrazolo [1,5-a]pyrimidin-6-yl)-3-(2-(trifluoromethyl)pyridin-4-yl)urea]		7.03
CN[C@@H](C)c1c(NC(=O)Nc2cnc(-n3nccn3)c(Cl)c2)cnc2cc(Cl)nn12 [Example 119, (S)-1-(5-chloro-6-(2H-1,2,3-triazol-2-yl)pyridin-3-yl)-3-(2-chloro-7-(1-(methylamino)ethyl)pyrazolo[1,5-a]pyrimidin-6-yl)urea]	7.92	
COCC(OC)c1c(NC(=O)Nc2cnc(-n3nccn3)c(C(F)(F)F)c2)cnc2cc(Cl)nn12 (centres unmarked) [Example 108, 1-(6-(2H-1,2,3-triazol-2-yl)-5-(trifluoromethyl)pyridin-3-yl)-3-(2-chloro-7-(1,2-dimethoxyethyl)pyrazolo[1,5-a]pyrimidin-6-yl)urea]		7.77
CC(C)(C)c1c(NC(=O)Nc2cnc(-n3nccn3)c(Cl)c2)cnc2cc(Cl)nn12 [Example 34, 1-(7-(tert-butyl)-2-chloropyrazolo[1,5-a]pyrimidin-6-yl)-3-(5-chloro-6-(2H-1,2,3-triazol-2-yl)pyridin-3-yl)urea]		6.84
CO[C@@H](C)c1c(NC(=O)Nc2cncc(C#N)c2)cnc2cc(Cl)nn12 [Example 8, (S)-1-(2-chloro-7-(1-methoxyethyl)pyrazolo[1,5-a]pyrimidin-6-yl)-3-(5-cyanopyridin-3-yl)urea]		6.96
CC(C)c1c(NC(=O)Nc2cc(C(F)(F)F)cn(C)c2=O)cnc2cc(Cl)nn12 [Example 32, 1-(2-chloro-7-isopropylpyrazolo[1,5-a]pyrimidin-6-yl)-3-(1-methyl-2-oxo-5-(trifluoromethyl)-1,2-dihydropyridin-3-yl)urea]		7.23
CO[C@@H](C)c1c(NC(=O)Nc2cnc(-n3nccn3)c(C(F)(F)F)c2)cnc2cc(F)nn12 [Example 94, (S)-1-(6-(2H-1,2,3-triazol-2-yl)-5-(trifluoromethyl)pyridin-3-yl)-3-(2-fluoro-7-(1-methoxyethyl)pyrazolo[1,5-a]pyrimidin-6-yl)urea]		6.32
C[C@@H](O)c1c(NC(=O)Nc2cnc(-n3nccn3)c(C(F)(F)F)c2)cnc2cc(Cl)nn12 [Example 113, (R)-1-(6-(2H-1,2,3-triazol-2-yl)-5-(trifluoromethyl)pyridin-3-yl)-3-(2-chloro-7-(1-hydroxyethyl)pyrazolo[1,5a]pyrimidin-6-yl)urea]		7.11
Cn1ccnc1-c1c(NC(=O)Nc2cnc(-n3nccn3)c(Cl)c2)cnc2cc(Cl)nn12 [Example 86, 1-(5-chloro-6-(2H-1,2,3-triazol-2-yl)pyridin-3-yl)-3-(2-chloro-7-(1-methyl-1H-imidazol-2-yl)pyrazolo[1,5-a]pyrimidin-6-yl)urea]	7.10	7.36
CO[C@@H](C)c1c(NC(=O)Nc2ccnc(C(F)F)c2)cnc2cc(Cl)nn12 [Example 92, (S)-1-(2-chloro-7-(1-methoxyethyl)pyrazolo [1,5-a]pyrimidin-6-yl)-3-(2-(difluoromethyl)pyridin-4-yl)urea]		7.62
CC(C)c1c(NC(=O)Nc2cnc(-n3nccn3)c(Cl)c2)cnc2cc(Cl)nn12 [Example 21, 1-(5-chloro-6-(2H-1,2,3-triazol-2-yl)pyridin-3-yl)-3-(2-chloro-7-isopropylpyrazolo[1,5-a]pyrimidin-6-yl)urea]		6.51

More lines, now with the values ahead:

pIC50 [1]	pIC50 (IL2 promoter)	Compound
7.12		O=C(Nc1cnc(-n2nccn2)c(Cl)c1)Nc1cnc2cc(Cl)nn2c1C1CNCCO1 (centres unmarked) [Example 115, 1-(5-chloro-6-(2H-1,2,3-triazol-2-yl)pyridin-3-yl)-3-(2-chloro-7-(morpholin-2-yl)pyrazolo[1,5-a]pyrimidin-6-yl)urea]
7.39		O=C(Nc1cnc(-n2nccn2)c(Cl)c1)Nc1cnc2cc(Cl)nn2c1C1COCCN1 (centres unmarked) [Example 123, 1-(5-chloro-6-(2H-1,2,3-triazol-2-yl)pyridin-3-yl)-3-(2-chloro-7-(morpholin-3-yl)pyrazolo[1,5-a]pyrimidin-6-yl)urea]
	7.39	COc1ncc(NC(=O)Nc2cnc3cc(Cl)nn3c2C2CCC(C)O2)cc1Cl (centres unmarked) [Example 87, 1-(5-chloro-6-methoxypyridin-3-yl)-3-(2-chloro-7-(5-methyltetrahydrofuran-2-yl)pyrazolo[1,5-a]pyrimidin-6-yl)urea]
	7.31	CN1CCCC[C@H]1c1c(NC(=O)Nc2cnc(-n3nccn3)c(Cl)c2)cnc2cc(Cl)nn12 [Example 84, (S)-1-(5-chloro-6-(2H-1,2,3-triazol-2-yl)pyridin-3-yl)-3-(2-chloro-7-(1-methylpiperidin-2-yl)pyrazolo[1,5-a]pyrimidin-6-yl)urea]
	7.12	O=C(Nc1cnc(-n2nccn2)c(Cl)c1)Nc1cnc2cc(Cl)nn2c1C1CC12CCOC2 (centres unmarked) [Example 68, 1-(5-chloro-6-(2H-1,2,3-triazol-2-yl)pyridin-3-yl)-3-(2-chloro-7-(5-oxaspiro[2.4]heptan-1-yl)pyrazolo[1,5-a]pyrimidin-6-yl)urea]
	6.69	COc1ncc(NC(=O)Nc2cnc3cc(Cl)nn3c2-c2ccncc2)cc1Cl [Example 69, 1-(5-chloro-6-methoxypyridin-3-yl)-3-(2-chloro-7-(pyridin-4-yl)pyrazolo[1,5-a]pyrimidin-6-yl)urea]
7.74	7.55	CC(C)(C)OC(=O)N1CCOC(c2c(NC(=O)Nc3cnc(-n4nccn4)c(Cl)c3)cnc3cc(Cl)nn23)C1 (centres unmarked) [Example 66, tert-butyl 2-(2-chloro-6-(3-(5-chloro-6-(2H-1,2,3-triazol-2-yl)pyridin-3-yl)ureido)pyrazolo[1,5-a]pyrimidin-7-yl)morpholine-4-carboxylate]
